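Cells were grown in 96-well plates and exposed to each compound for 48 hours at five concentrations; endpoints were interpolated linearly between bracketing concentrations, or set to the highest concentration if not reached. GI50 marks 50% less growth. TGI marks complete inhibition of growth.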
Experiments:
Test in all cases: NCI tumour cell line growth inhibition, 48 h
[1] = tested on: U251 CNS
[2] = tested on: MCF7 breast
[3] = tested on: OVCAR-3 ovarian
[4] = tested on: SK-MEL-28 melanoma
[5] = tested on: A549 NSCLC
[6] = tested on: MALME-3M melanoma
[7] = tested on: SF-539 CNS
[8] = tested on: RXF 393 renal
[9] = tested on: CAKI-1 renal
[10] = tested on: ACHN renal

`CCN(CC)CCOc1ccc(C2=C(c3ccccc3)CCc3cc(OC)ccc32)cc1` was tested, and the GI50 [1] was 2.29 µM, the TGI [1] was 7.07 µM and the GI50 [2] was 0.547 µM. For the same compound, the TGI [2] was 2.62 µM, the GI50 [3] was 5.64 µM and the TGI [3] was 15.7 µM. It also gave a GI50 [4] of 1.62 µM, a TGI [4] of 3.19 µM and a GI50 [5] of 4.02 µM. The TGI [5] was 16.2 µM, the GI50 [6] was 1.69 µM and the TGI [6] was 3.41 µM. For the same compound, the GI50 [7] was 1.52 µM, the TGI [7] was 2.89 µM and the GI50 [8] was 10.2 µM. It also gave a TGI [8] of 35.9 µM, a GI50 [9] of 2.18 µM and a TGI [9] of 5.86 µM. For the same compound, the GI50 [10] was 4.2 µM and the TGI [10] was 15.4 µM.
`CN(C)c1ccc(Sc2ccc3nc(N)nc(N)c3c2)cc1` was tested, and the GI50 [1] was 0.446 µM, the TGI [1] was 4.14 µM and the GI50 [2] was 1.14 µM. For the same compound, the TGI [2] was 13.4 µM, the GI50 [3] was 1.56 µM and the TGI [3] was 4.59 µM. It also gave a GI50 [4] of 2.76 µM, a TGI [4] of 15.5 µM and a GI50 [5] of 0.139 µM. For the same compound, the TGI [5] was 12 µM, the GI50 [6] was 1.09 µM and the TGI [6] was 2.87 µM. For the same compound, the GI50 [7] was 0.985 µM, the TGI [7] was 10.3 µM and the GI50 [8] was 1.06 µM. For the same compound, the TGI [8] was 11.3 µM, the GI50 [9] was 2.03 µM and the TGI [9] was 16.8 µM. The GI50 [10] was 0.52 µM and the TGI [10] was 7.39 µM.
In the case of `N#CC1(C#N)C2C=CC(C3CCC=C32)C1(C#N)C#N` (stereo not given), the TGI [1] is reported as > 10 µM, the TGI [2] is reported as > 10 µM and the TGI [3] is reported as > 10 µM. For the same compound, the TGI [4] was > 10 µM, the TGI [5] was > 10 µM and the TGI [6] was 5.5 µM. For the same compound, the TGI [7] was > 10 µM, the TGI [8] was > 10 µM and the TGI [9] was > 10 µM. The TGI [10] was > 10 µM.
For `Cn1cc(-c2nn3cc(-c4cccs4)nc3s2)c2cc(F)ccc21`, the GI50 [1] was 2.76 µM, the TGI [1] was 17.9 µM and the GI50 [2] was 0.836 µM. The TGI [2] was 30 µM, the GI50 [3] was 2.06 µM and the TGI [3] was 9.67 µM. For the same compound, the GI50 [4] was 7.23 µM, the TGI [4] was > 100 µM and the GI50 [5] was 2.85 µM. For the same compound, the TGI [5] was 95.6 µM, the GI50 [6] was 1.81 µM and the TGI [6] was 31.6 µM. It also gave a GI50 [7] of 2.18 µM, a TGI [7] of 7.54 µM and a GI50 [8] of 1.59 µM. It also gave a TGI [8] of 5.73 µM, a GI50 [9] of 2.42 µM and a TGI [9] of 57.4 µM. It also gave a GI50 [10] of 3.39 µM and a TGI [10] of 86.8 µM.
`Nc1ncnc2c1ncn2Cc1ccc(C23CC4CC(CC(C4)C2)C3)c(O)c1` gave a GI50 [1] of 14.8 µM, a TGI [1] of 32.6 µM and a GI50 [2] of 17.4 µM. For the same compound, the TGI [2] was > 100 µM, the GI50 [3] was 17.2 µM and the TGI [3] was > 100 µM. The GI50 [4] was 18.9 µM, the TGI [4] was > 100 µM and the GI50 [5] was 6.52 µM. The TGI [5] was 77.4 µM, the GI50 [6] was 12.6 µM and the TGI [6] was > 100 µM. The GI50 [7] was 23.4 µM, the TGI [7] was 75.1 µM and the GI50 [8] was 8.06 µM. It also gave a TGI [8] of 39.7 µM, a GI50 [9] of 8.14 µM and a TGI [9] of 37.5 µM. For the same compound, the GI50 [10] was 15.6 µM and the TGI [10] was > 100 µM.
`COc1cc2c(cc1OC)[C@H]1C(=O)c3cc4c(cc3[C@H]1N(C)C2=O)OCO4` was tested, and the TGI [1] was > 100 µM, the TGI [2] was > 100 µM and the TGI [3] was > 100 µM. The TGI [4] was > 100 µM, the TGI [5] was > 100 µM and the TGI [6] was > 89.5 µM. The TGI [7] was > 77.8 µM, the TGI [8] was > 100 µM and the TGI [9] was > 100 µM. For the same compound, the TGI [10] was > 100 µM.

Source: PubChem BioAssay (NCI)
